“And” between values parts separate entries of the source, which are not always exact repeats. Equal entries are not always repeated.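 Grown in 96-well plates, cells were treated for 48 hours with each compound at five concentrations. Insufficient inhibition: endpoint recorded as highest concentration tested. GI50: concentration for 50% inhibition of growth. At the TGI there is no net growth.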
Key:
Experiment in all cases: DTP human tumour cell line panel, 48 h
A498 renal = tested on: A498 renal
BT-549 breast = tested on: BT-549 breast
EKVX NSCLC = tested on: EKVX NSCLC
HCC-2998 colon = tested on: HCC-2998 colon
MDA-MB-231 breast = tested on: MDA-MB-231 breast
NCI-H23 lung = tested on: NCI-H23 lung
NCI-H460 lung = tested on: NCI-H460 lung
RPMI-8226 leukemia = tested on: RPMI-8226 leukemia
SF-539 CNS = tested on: SF-539 CNS
UACC-62 melanoma = tested on: UACC-62 melanoma

| Compound | GI50 (A498 renal) | TGI (A498 renal) | GI50 (BT-549 breast) [µM] | TGI (BT-549 breast) [µM] | GI50 (EKVX NSCLC) | TGI (EKVX NSCLC) [µM] | GI50 (HCC-2998 colon) | TGI (HCC-2998 colon) | GI50 (MDA-MB-231 breast) | TGI (MDA-MB-231 breast) [µM] | GI50 (NCI-H23 lung) [µM] | TGI (NCI-H23 lung) [µM] | GI50 (NCI-H460 lung) [µM] | TGI (NCI-H460 lung) | GI50 (RPMI-8226 leukemia) [µM] | TGI (RPMI-8226 leukemia) | GI50 (SF-539 CNS) [µM] | TGI (SF-539 CNS) [µM] | GI50 (UACC-62 melanoma) [µM] | TGI (UACC-62 melanoma) |
| --- | --- | --- | --- | --- | --- | --- | --- | --- | --- | --- | --- | --- | --- | --- | --- | --- | --- | --- | --- | --- |
| CC(C)CCSC1=CC(=O)c2ccccc2C1=O | 19.8 µM | 63.9 µM | 1.33 | 21.3 | 4.5 µM | 16.6 | 21.5 µM | 45.7 µM | 1.36 µM | 3.5 | 14.5 | 34.7 | 16.7 | 42.9 µM | 0.0469 | 0.304 µM | 5.74 | 22.7 | 4.02 | 14.8 µM |
| CNC(=O)c1c(NC(=O)c2ccc(C(F)(F)F)cc2)sc2c1CCC(=O)C2 | 2.33 µM | 7.07 µM | 0.366 | 3.72 | 0.89 µM | 6.05 | 1.09 µM | 4.12 µM | 0.529 µM | 2.51 | 0.418 | 5.9 | 0.89 | 4.19 µM | 0.272 | 0.884 µM | 0.386 | 1.72 | 0.617 | 2.23 µM |
| CCc1c2c(nc3cc4c(c(N)c13)OCO4)-c1cc3c(c(=O)n1C2)COC(=O)[C@]3(O)CC | 0.00758 µM and 0.0334 µM | 0.252 µM and 0.459 µM | < 0.001 | 4.39 | 1.93 µM and 0.962 µM | 48.7 | 0.0317 µM and 0.0431 µM | 6.38 µM and 0.676 µM | 0.0246 µM and 0.0488 µM | > 100 | < 0.001 | – | < 0.001 | 0.47 µM and 0.157 µM | – | 0.317 µM and 2.77 µM | < 0.001 | 0.038 | < 0.001 | 0.405 µM and 0.236 µM |
| Cc1cc(C(=O)Nc2nc3cccc(Cl)c3n2[C@@H]2CCCCN(C(=O)/C=C/CN(C)C)C2)ccn1 | 0.514 µM | 14.1 µM | 7.26 | 20.9 | 0.518 µM | 18.7 | 15.6 µM | 30.9 µM | 13 µM | 28.1 | 12.9 | 38 | 8.7 | 23.1 µM | 9.25 | 32 µM | 15.1 | 29.5 | 15.3 | 31.5 µM |
| NC(=NCCCC1(c2ccccc2)CCCC1)Nc1ccc(Cl)cc1 | 1.75 µM | 3.29 µM | 1.74 | 3.27 | 1.87 µM | 3.57 | 1.66 µM | 3.08 µM | 1.6 µM | 3.14 | 1.69 | 3.35 | 1.69 | 3.42 µM | 1.89 | 4.08 µM | 1.75 | 3.23 | 1.68 | 3.2 µM |
| CNC1C(O)C(OC2C(N)CC(N)C(OC3OC(CN)=CCC3N)C2O)OCC1(C)O (stereo not drawn) | – | > 100 µM | – | > 100 | – | > 100 | – | > 100 µM | – | > 100 | – | > 100 | – | > 100 µM | – | > 100 µM | – | > 100 | – | > 100 µM |
| COc1ccccc1/C=C/C(=O)c1c(O)cc2occc2c1OC | 46 µM | > 100 µM | 28.2 | > 100 | 37.1 µM | > 100 | > 100 µM | > 100 µM | 33.1 µM | > 100 | 22.4 | > 100 | > 100 | > 100 µM | 23.5 | > 100 µM | 24.3 | > 100 | 23.7 | > 100 µM |
| CN[C@@H](C)C(=O)N[C@H]1CN(C(=O)CC(C)C)CC[C@H]2CC[C@@H](C(=O)NC(c3ccccc3)c3ccccc3)N2C1=O | > 42.7 µM | > 100 µM | 0.231 | > 100 | > 100 µM | > 100 | > 100 µM | > 100 µM | 0.642 µM | 5.7 | 27.6 | > 100 | > 100 | > 100 µM | > 74.9 | > 100 µM | 1.78 | > 100 | > 100 | > 100 µM |
| COc1cc2c(F)nccc2cc1C(=O)N[C@@H](c1ccc(F)c(Cl)c1)[C@@H]1C[C@@H](O)CN1 | 0.0301 µM | 1.89 µM | 0.487 | 4.81 | 2.02 µM | 17.8 | 0.875 µM | 19.5 µM | 11.3 µM | 25 | 11.1 | 26 | 0.623 | 15.8 µM | 7.72 | 40.1 µM | 0.0677 | 11.1 | 0.514 | 16.9 µM |
| Cc1ccc2c(c1)C(C)Cc1c(ncnc1-n1cnc3cc(C)ccc31)N2C (stereo not drawn) | 0.0297 µM | 2 µM | 0.0281 | 0.338 | 0.0634 µM | 23.8 | 0.0422 µM | 16.3 µM | 0.0416 µM | 13.4 | 0.0567 | 21.5 | 0.034 | 4.39 µM | 0.0406 | 3.89 µM | 0.0218 | 0.0593 | 0.086 | 16.7 µM |
| C#CCSc1n[nH]c(-c2ccco2)n1 | – | > 100 µM | – | > 100 | – | > 100 | – | > 100 µM | – | > 100 | – | > 100 | – | > 100 µM | – | > 100 µM | – | > 100 | – | > 100 µM |
| CO/[N+]([O-])=C\C(=O)N/C=C/C(=O)O | – | > 100 µM | – | > 100 | – | > 100 | – | > 100 µM | – | > 100 | – | > 100 | – | > 100 µM | – | > 100 µM | – | > 100 | – | > 100 µM |
| NC(=O)C1c2ccccc2C=Cc2ccccc21 | > 100 µM | > 100 µM | > 100 | > 100 | > 100 µM | > 100 | > 100 µM | > 100 µM | > 100 µM | > 100 | > 100 | > 100 | > 100 | > 100 µM | > 100 | > 100 µM | > 100 | > 100 | > 100 | > 100 µM |
| CCCCCCCCCCCCNC(=O)[C@H]1CSC(c2cc3ccccc3s2)N1 (stereo partly drawn) | 10.2 µM | 26.3 µM | 1.01 | 4.11 | 0.951 µM | 2.69 | 4.88 µM | 9.72 µM | 0.706 µM | 1.46 | 1.92 | 7.19 | 1.02 | 2.5 µM | 6 | 15.3 µM | 1.36 | 4.79 | 1.15 | 4.28 µM |
| C/C1=C/C(=O)O[C@@H]2C[C@@H](CC[C@H](C)/C=C\C=C\CC1)O[C@@](O)([C@@H]1CSC(=O)N1CO)C2 | 0.0183 µM | 0.0724 µM | 0.0592 | 20 | 0.144 µM | > 100 | 13 µM | 65.4 µM | 0.0634 µM | > 60.4 | 0.151 | 30.4 | 0.241 | 34.1 µM | 0.161 | 23.1 µM | 0.0274 | 12.4 | 0.0863 | 26.2 µM |

From PubChem BioAssay (NCI)
